Patent US12478677B2, “Tunable luminescent organic salts for enhanced imaging and photodynamic therapy” (BOARD OF TRUSTEES OF MICHIGAN STATE UNIVERSITY, priority 2017, dated 2025)
“Also recorded” adds a separate entry of the source.

Tested on: mitochondrial superoxide
Assay: MitoSOX measurement of mitochondrial superoxide
Type: cell-based, human
Settings: A549 cells treated 4 days at phototoxic concentrations; with or without light
Description: FIG. 22. Luminescent organic salts generate mitochondrial ROS. […] MitoSOX is used to measure mitochondrial superoxide, and H2DCFDA for general cytoplasmic ROS in A549 cell treated with organic salts at indicated phototoxic concentrations for 4 days.
Photoactive agents accumulate in the mitochondria of cancer cells and generate reactive oxygen species (ROS) with light exposure, depolarizing the mitochondrial membrane potential to cause cell death. Small molecule protective agents that quench ROS have been used to decrease their phototoxicity. However, the exact type of ROS generated by each luminescent agent remains unclear. Photo-induced ROS include singlet oxygen, superoxide radical anion, hydrogen peroxide, hydroxyl radical and others (see FIG. 21). Superoxide is a highly reactive and biologically toxic species deployed in nature to kill invading organisms. It is often formed as a byproduct of mitochondrial respiration but is typically quenched by the highly efficient superoxide dismutase. Hydroxyl radicals are also highly reactive, damaging nearly all forms of biological molecules. Unlike superoxide radical, the hydroxyl radical cannot be easily quenched naturally via enzymes, and endogenous antioxidants are typically required. Singlet oxygen is the excited state of the common triplet oxygen (O2 ground state) and is highly reactive towards organic compounds. Singlet oxygen can be eliminated in mammalian systems by antioxidants. A range of nitroxy radicals can subsequently stem from superoxide (peroxynitrite) or peroxide (nitrogen dioxide) species. […] Each luminescent cation-anion pair generates specific ROS resonant with its own energy level, and cell types can be targeted by generating the key sensitizing ROS. For example, it is expected that CyFPhB is phototoxic (see FIGS. 11A and 11B and 12A and 12B) by generating reactive oxygen species, which can be resonant with its molecular orbital energy levels (FIG. 21). […] No cytoplasmic ROS is detected using general cytoplasmic ROS probe H2DCFDA. […]

## CCN1C(=CC=C2CCCC(C=CC3=[N+](CC)c4ccc5ccccc5c4C3(C)C)=C2Cl)C(C)(C)c2c1ccc1ccccc21.Fc1c(F)c(F)c([B-](c2c(F)c(F)c(F)c(F)c2F)(c2c(F)c(F)c(F)c(F)c2F)c2c(F)c(F)c(F)c(F)c2F)c(F)c1F [CyTPFB]
  Mitochondrial superoxide / ROS generation (MitoSOX), in words: generating minimal ROS even with light at high concentrations; also recorded: generating minimal superoxide even with light
